Holding throughout (assay type): cell-based
Assay [1] addresses T1, short form of the GPR120 receptor (Homo sapiens, UniProt Q5NUL3).
T1 construct: host or cells: PathHunter CHO-K1 GPR120S β-Arrestin Cell Line
Description: Human GPR120 DiscoveRx PathHunter Beta-Arrestin assay, Procedure β-arrestin B. From the text: Human GPR120 DiscoveRx PathHunter® Beta-Arrestin Assay Assay Principle:
The binding of an agonist (medium/long chain fatty acids or small molecule agonists) to the G-protein-coupled receptor GPR120 activates phospholipase C, leading to release of intracellular Ca^+2 through the generation of inositol 1,4,5-trisphosphate (InsP3 or IP3). GPR120 activation can also trigger intracellular signaling via recruitment of Beta-Arrestin. In the present method, agonist-induced activation of the human GPR120 receptor is monitored through the use of PathHunter® CHO-K1 GPR120 Beta-Arrestin Cell Line engineered by DiscoveRx, as detailed below. The cell lines are designed to co-express both the ProLink/Enzyme Donor (PK)-tagged GPCR and the Enzyme […] (EA)-tagged Beta-Arrestin fusion proteins. Upon GPR120 receptor stimulation/activation, the EA-tagged Beta-Arrestin portion is translocated to the tagged receptor, where the two enzyme fragments are brought within close proximity. Under these conditions, these fragments can interact and form an active Beta-gal enzyme complex through Enzyme Fragment Complementation (EFC). This active Beta-gal complex can enzymatically hydrolyse the substrate to produce a detectable light signal; therefore, activation as a function of agonist concentration can be expressed as an EC50 value to determine relative compound activities. This in vitro assay therefore serves to assess compound agonist activity of the GPR120.
In Procedure β-arrestin B the cells used were PathHunter® CHO-K1 GPR120S β-Arrestin Cell Line, expressing the short form of the GPR120 receptor (Accession #[…]), with 5000 cells/well.
The selected CHO-K1 GPR120 β-Arrestin cells were cultured in Ham's F12 media supplemented with 10% fetal bovine serum (FBS), 1% Glutamine, 1×p/s, 800 μg/mL G418 and 300 μg/mL Hygromycin B (for selection). Cell stocks were maintained and grown in a sub-confluent state using standard cell culture procedures. The day before the experiment, the cells were harvested with non-enzymatic cell dissociation buffer and re-suspended in complete growth media at the desired concentration. A Corning 384-plate was then seeded with the proper number of cells in a volume of 25 μL, per well. The seeded plates were incubated overnight at 37° C.
On the day of the experiment, the Assay Buffer containing (a) HBSS with Ca^++ and Mg^++, (b) 20 mM HEPES, and (c) 0.1% BSA stabilizer (pH 7.4) was prepared. The growth medium was gently removed from the cell plates and 20 μL of Assay Buffer added to each well. The plate was then incubated at 37° C. for 60 min. Test compounds were serially diluted in Assay Buffer to desired concentrations (more particularly to one or more of the following μM concentrations: 25, 12.5, 6.25, 3.12, 1.56, 0.78, 0.39, 0.19, 0.10, 0.05, 0.02, 0.01). Five μL of compound dilution was then added to each well and the plate incubated at 37° C. for 90 min. The detection reagents were prepared according to the manufacture's instruction. Twelve μL of the detection reagents were added to each well and the plate incubated at room temperature for 60 min.
The plates were read on an EnVision instrument, using Protocol name: Luminescence, Plate type: 384 Costar, Measurement height: 3 mm, Measurement time: 1 s, Aperture: 384 Plate aperture. The % Activity relative to the positive control was calculated using the following equation:
The % Activity values were plotted versus the concentration of test compound and fitted to a sigmoidal dose-response curve with a Hill slope=1 (fixed value) using nonlinear regression with GraphPad Prism 5.0 to calculate the EC50 values. The Fitting Equation was: Y=Bottom+(Top-Bottom)/(1+10^((Log EC50−X)*HillSlope)), where X is the log of the concentration and Y is the response.

Assay [2] deals with T2, Human GPR120 short form (Homo sapiens, UniProt Q5NUL3).
T2 construct: expressed in transfected cells
T2 sequence (Q5NUL3 1-361): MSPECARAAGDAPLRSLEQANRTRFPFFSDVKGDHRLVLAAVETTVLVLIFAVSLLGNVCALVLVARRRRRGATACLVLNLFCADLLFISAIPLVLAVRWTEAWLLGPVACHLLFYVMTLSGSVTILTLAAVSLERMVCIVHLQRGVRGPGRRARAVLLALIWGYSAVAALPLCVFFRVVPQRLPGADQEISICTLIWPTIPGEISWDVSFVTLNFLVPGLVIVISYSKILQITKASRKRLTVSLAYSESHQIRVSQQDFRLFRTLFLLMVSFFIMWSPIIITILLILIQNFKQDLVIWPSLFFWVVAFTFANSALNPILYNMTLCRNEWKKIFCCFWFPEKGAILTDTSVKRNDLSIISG
Description: Human GPR120 calcium flux assay, Procedure Calcium A (2500 cells/well). From the text: Human GPR120 in Calcium Flux Assay
This in vitro assay serves to assess test compound agonist activity against the short splice variant (SVS with Accession number NM_001195755.1 confirmed by sequencing data) of the GPR120 receptor. The Human Short splice variant #2 (NM_001195755.1) is missing an in-frame coding exon compared to variant 1 (the Human Long splice variant NM_181745.3), resulting in a shorter isoform (GPR120-S) lacking a 16 aa protein segment compared to isoform GPR120-L. The assay platform utilizes HEK-293 cells stably transfected to express the Human GPR120 short form. These cells are first loaded with the Ca^+2 sensitive dye, Fluo-4 NW. Upon stimulation, intracellular released Ca^+2 can bind to the dye and alter its fluorescence intensity. This increase in fluorescence signal, and thus the flux in intracellular [Ca^2+], is detected and quantitated by fluorescence imaging using a FLIPR reader. The effect of the agonist is measured as a function of concentration and used to calculate an EC50 based upon a response curve.
In this procedure 2500 cells/well were employed.
A Human GPR120 clone (Genbank accession number NM_001195755.1) was placed into the pcDNA3.1 mammalian expression vector carrying the neomycin resistance gene. A stable mammalian cell was generated by placing the above clone into a HEK293 background. Clonal cells responding to long chain fatty acids had expression levels of GPR120 confirmed by RT-qPCR. Human HEK-GPR120 cells were cultured in Dulbecco's Modified Eagle's Medium (DMEM)/F12 medium supplemented with 10% fetal bovine serum (FBS), 1% L-Glutamine and 1% penicillin/streptomycin and 0.5 mg/ml G-418. Cells were split 2 times a week to keep the cells in the log-phase growth.
In preparation for the assay, HEK cells stably transfected with Human GPR120 (2.5K cells per well in 25 uL growth medium) were seeded into 384-well plates and then incubated overnight (37° C., 5% CO2). The next day, the media was changed to 20 μL assay buffer and the cell starved for 1 h at 37° C. The dye loading solution (2× dye) was prepared using 10 mL assay buffer, 100 μL of 250 mM probenecid, 1 bottle of Component A, and 20 μl of dye in DMSO. Twenty μL of the 2× dye loading buffer was then added to each well. The plates were incubated at 37° C. for 30 min, then at room temperature for an additional 15 minutes, before performing the assay on FLIPR.
The assay was performed on a FLIPR plate reader using the following parameters. Baseline was read for 10 seconds at 1 sec intervals. The program was set to transfer 10 μL of ligand from compound plate to cell plate after baseline reading. Aspiration was executed at: 10 μL/sec speed, 4.6 μL height, Dispensing was executed at: 30 μL/sec speed, 45 μL height. After compound addition, each well was read for 300 sec, with measurements collected at 1 sec intervals.
The kinetic data from the FLIPR was based upon a 5 minute window for data collection. The fluorescence of each sample well was used for individual calculations of a normalized RFU value, which was defined as maximum response minus the minimum response. The normalized fluorescence reading (RFU) was calculated as follows: RFU=Fmax−Fmin
The Fitting Equation was: Y=Bottom+(Top-Bottom)/(1+10^((Log EC50−X)*HillSlope)), where X is the log of the concentration and Y is the response.

The target of assay [3] is T2, Human GPR120 short form. Description: Human GPR120 calcium flux assay, Procedure Calcium B (4200 cells/well). Summed up:
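Agonist EC50 came from a four-parameter fit of RFU (Fmax−Fmin) read over 300 s on FLIPR. Cells were HEK293 stably transfected with human GPR120 (NM_001195755.1) at 4200 per well, serum-starved 1 h and loaded with Fluo-4 NW dye with probenecid before ligand addition.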

The target in assay [4] is T3, human GPR40 (Homo sapiens, UniProt O14842).
T3 construct: expressed in transfected cells
T3 sequence (O14842 whole entry): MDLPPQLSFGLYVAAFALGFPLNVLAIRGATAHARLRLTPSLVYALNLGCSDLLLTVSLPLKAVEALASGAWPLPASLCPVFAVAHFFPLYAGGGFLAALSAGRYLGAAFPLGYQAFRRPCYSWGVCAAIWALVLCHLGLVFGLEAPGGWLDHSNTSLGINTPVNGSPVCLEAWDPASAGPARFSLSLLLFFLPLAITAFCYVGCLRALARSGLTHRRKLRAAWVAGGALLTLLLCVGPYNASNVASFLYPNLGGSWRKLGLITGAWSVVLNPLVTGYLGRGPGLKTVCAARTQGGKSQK
Description: GPR40 calcium flux assay, human GPR40. To be noted: HEK293 cells stably expressing GPR40; table does not say human or rat. Summed up:
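Cells preincubated 1 h at 37° C. in HBSS, 20 mM HEPES, 0.1% BSA, then Fluo 8 calcium dye 30 min at 37° C. and 15 min at room temperature.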
In general terms: Calcium assays in cells follow changes in intracellular calcium, usually with a dye or a luminescent sensor.

In assay [5] the target is T4, long form of human GPR120 (Homo sapiens, UniProt Q5NUL3).
T4 construct: host or cells: PathHunter CHO-K1 GPR120 β-Arrestin Cell Line
T4 sequence (Q5NUL3 1-377 isoform Q5NUL3-1): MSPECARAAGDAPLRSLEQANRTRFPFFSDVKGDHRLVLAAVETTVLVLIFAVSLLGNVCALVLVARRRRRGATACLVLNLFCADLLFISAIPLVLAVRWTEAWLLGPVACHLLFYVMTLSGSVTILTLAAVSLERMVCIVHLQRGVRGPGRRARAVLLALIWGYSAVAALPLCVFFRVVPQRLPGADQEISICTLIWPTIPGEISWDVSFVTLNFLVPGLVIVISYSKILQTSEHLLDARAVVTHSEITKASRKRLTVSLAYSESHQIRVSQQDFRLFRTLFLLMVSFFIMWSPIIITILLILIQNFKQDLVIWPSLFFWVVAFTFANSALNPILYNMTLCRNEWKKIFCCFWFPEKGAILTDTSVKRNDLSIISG
T4 sequence (P32121 whole entry partner): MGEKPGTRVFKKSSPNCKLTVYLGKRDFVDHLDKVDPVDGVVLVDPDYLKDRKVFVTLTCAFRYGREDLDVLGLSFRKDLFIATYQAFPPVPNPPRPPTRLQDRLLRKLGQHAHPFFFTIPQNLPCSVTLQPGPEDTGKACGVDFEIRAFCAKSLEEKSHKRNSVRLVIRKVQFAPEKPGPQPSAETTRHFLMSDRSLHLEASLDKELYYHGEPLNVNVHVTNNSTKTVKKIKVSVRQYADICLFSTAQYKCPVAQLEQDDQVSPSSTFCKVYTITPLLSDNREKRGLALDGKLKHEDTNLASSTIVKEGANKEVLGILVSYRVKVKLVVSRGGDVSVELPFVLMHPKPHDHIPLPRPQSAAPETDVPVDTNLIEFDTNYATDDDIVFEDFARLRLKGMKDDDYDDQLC
Description: Human GPR120 DiscoveRx PathHunter Beta-Arrestin assay, Procedure β-arrestin A. Summed up: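 PathHunter CHO-K1 cells expressing long-form human GPR120 (3000/well) were seeded overnight. They were then preincubated 60 min in HBSS with 20 mM HEPES and 0.1% BSA, pH 7.4, and exposed to compound for 90 min at 37 °C. β-Arrestin recruitment was read as β-gal complementation luminescence. EC50 came from % activity versus positive control, Hill slope fixed at 1.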

Some results are limits rather than exact numbers.

T1 sequence (P32121 whole entry partner, one chain of several): as the sequence (P32121 whole entry partner) above

Regarding `Cc1c(CCC(=O)O)ccc(OCC2=C(c3ccc(Br)cc3)CCCC2)c1C` [Compound 481, 3-[4-[[2-(4-bromophenyl)cyclohexen-1-yl]methoxy]-2,3-dimethyl-phenyl]Propanoic Acid], the EC50 (usually the concentration that produces a half-maximal response) came to 475 nM in assay [1], 250 nM in assay [2] and 134 nM in assay [3].
As to `Cc1c(CCC(=O)O)ccc(OCC2=C(c3ccc(Cl)cc3)CCC2C(F)(F)F)c1C` (centres unmarked) [Compound 12, 3-[4-[[2-(4-chlorophenyl)-5-(trifluoromethyl)cyclopenten-1-yl]methoxy]-2,3-dimethyl-phenyl]Propanoic Acid], the EC50 in assay [1] was 93 nM; in assay [4], greater than 5000 nM; in assay [3], 481 nM.
For the molecule `Cc1ccc(C2=C(COc3c(F)cc(CCC(=O)O)cc3F)CCC2)cc1N` [Compound 135, 3-(4-((2-(3-amino-4-methylphenyl)cyclopent-1-en-1-yl)methoxy)-3,5-difluorophenyl)Propanoic Acid], the EC50 in assay [1] was 1250 nM; in assay [4], greater than 5000 nM.
Consider `[2H]C(C(=O)O)C([2H])c1ccc(OCC2=C(c3ccc(Cl)cc3)CCC2)c(C)c1` (centres unmarked) [Compound 126-D, 3-(4-((2-(4-chlorophenyl)cyclopent-1-en-1-yl)methoxy)-3-methylphenyl)Propanoic-2,3-d2 Acid], for which the EC50 in assay [1] is 45 nM; in assay [4] it was greater than 5000 nM; in assay [5] it was 35 nM; in assay [3], 10 nM.
With `Cc1ccc(C2=C(COc3ccc(CCC(=O)O)c(F)c3F)CCC2)cn1` [Compound 87, 3-(2,3-difluoro-4-((2-(6-methylpyridin-3-yl)cyclopent-1-en-1-yl)methoxy)phenyl)Propanoic Acid], the results for the concentration for a half-maximal effect (EC50) in assay [1] and in assay [4] were 493 nM and greater than 5000 nM, respectively.
In the case of `O=C(O)CCc1ccc(OCC2=C(c3ccc(Cl)cc3)CCC2)c(Br)c1` [Compound 129, 3-[3-bromo-4-[[2-(4-chlorophenyl)cyclopenten-1-yl]methoxy]phenyl]Propanoic Acid], the results for the EC50 in assay [1], in assay [4] and in assay [3] were 47 nM, greater than 5000 nM and 21 nM, respectively.
`Cc1c(CCC(=O)O)ccc(OCC2=C(c3ccc(F)c(F)c3)CCC2)c1C` [Compound 117]: the EC50 was 190 nM in assay [1], greater than 5000 nM in assay [4], 256 nM in assay [5] and 110 nM in assay [3].
Regarding `CC(Cc1ccc(OCC2=C(c3ccc(F)cc3)CCC2)c(F)c1)C(=O)O` (centres unmarked) [Compound 458, 3-(3-fluoro-4-((2-(4-fluorophenyl)cyclopent-1-en-1-yl)methoxy)phenyl)-2-methylpropanoic Acid], the concentration for a half-maximal effect (EC50) in assay [1] turned out to be 371 nM; in assay [3] it was 331 nM.
Turning to `O=C(O)CCc1cc(F)c(OCC2=C(c3ccc(Cl)cc3)CCC2C(F)(F)F)c(F)c1` (centres unmarked) [Compound 33, 3-[4-[[2-(4-chlorophenyl)-5-(trifluoromethyl)cyclopenten-1-yl]methoxy]-3,5-difluoro-phenyl]Propanoic Acid], the EC50 is 180 nM in assay [1], greater than 5000 nM in assay [4], 312 nM in assay [5] and 288 nM in assay [3].
For `O=C(O)CCc1ccc(OCC2=C(c3ccc(Cl)cc3)CCC2C(F)(F)F)c(F)c1F` (centres unmarked) [Compound 32, 3-[4-[[2-(4-chlorophenyl)-5-(trifluoromethyl)cyclopenten-1-yl]methoxy]-2,3-difluoro-phenyl]Propanoic Acid] the same measures were 203 nM, greater than 5000 nM, 341 nM and 311 nM.
For `O=C(O)CCc1ccc(OCC2=C(c3ccc(Cl)cc3)CCC2)c(I)c1` [Compound 130, 3-[3-iodo-4-[[2-(4-chlorophenyl)cyclopenten-1-yl]methoxy]phenyl]Propanoic Acid] the same measures were 41 nM, greater than 5000 nM, 87 nM and 34 nM.

These data come from patent US11230526B1, “Cylcoalkenyl derivatives useful as agonists of the GPR120 and/or GPR40 receptors” (Janssen Pharmaceutica NV, priority 2018, dated 2022).
